Assay results: US20250062039A1, “ESTIMATION OF PHARMACOKINETIC (PK) PARAMETERS OF DRUG CANDIDATES USING UNIVERSAL PK PARAMETERS BOUNDS” (Tata Consultancy Services Limited, priority 2023, published 2025)

Tests used:
[1] = human, in vivo, po, 500 mg
clinical = conditions: human, in vivo, po, 500 mg
[2] = Oral 500 mg; cited from earlier work

**Q.** Which “CL, Selected Parameter Value” [1] does the source give for `CC[C@H]1OC(=O)[C@H](C)[C@@H](O[C@H]2C[C@@](C)(OC)[C@@H](O)[C@H](C)O2)[C@H](C)[C@@H](O[C@@H]2O[C@H](C)C[C@H](N(C)C)[C@H]2O)[C@](C)(O)C[C@@H](C)CN(C)[C@H](C)[C@@H](O)[C@]1(C)O` [Azithromycin] here?
**A.** Its value is 280.35 mL/min.

**Q.** And the “Vd beta, Selected Parameter Value” [1]?
**A.** The value was 5475.92 L.

**Q.** What about the “Vss, Selected Parameter Value” [1] of the same compound?
**A.** Its value is 4218.4 L.

**Q.** And the AUC (clinical)?
**A.** Its AUC is 6380 ng·h/mL.

**Q.** And the half-life (clinical)?
**A.** Its half-life is 76.2 h.

**Q.** And the “AUC, Maximum” value [2]?
**A.** The value was 6380 ng·h/mL.

**Q.** What about the “AUC, Mean Value” [2] of the same compound?
**A.** The value was 4860 ng·h/mL.

**Q.** What about the “AUC, Minimum” value [2] of the same compound?
**A.** Its value is 3500 ng·h/mL.

**Q.** What about the “CL, Mean Value” [2] of the same compound?
**A.** Its value is 664.84 mL/min.

**Q.** What about the “K10, Maximum” value [2] of the same compound?
**A.** Its value is 0.12 h⁻¹.

**Q.** What about the “K10, Mean Value” [2] of the same compound?
**A.** The value was 0.08 h⁻¹.

**Q.** What about the “K10, Minimum” value [2] of the same compound?
**A.** Its value is 0.05 h⁻¹.

**Q.** And the “K12, Maximum” value [2]?
**A.** The value was 0.18 h⁻¹.

**Q.** And the “K12, Mean Value” [2]?
**A.** Its value is 0.12 h⁻¹.

**Q.** And the “K12, Minimum” value [2]?
**A.** The value was 0.07 h⁻¹.

**Q.** And the “K21, Maximum” value [2]?
**A.** Its value is 0.06 h⁻¹.

**Q.** What about the “K21, Mean Value” [2] of the same compound?
**A.** Its value is 0.04 h⁻¹.

**Q.** What about the “K21, Minimum” value [2] of the same compound?
**A.** The value was 0.03 h⁻¹.

**Q.** And the “Ke, Maximum” value [2]?
**A.** Its value is 0.02 h⁻¹.

**Q.** What about the “Ke, Mean Value” [2] of the same compound?
**A.** The value was 0.02 h⁻¹.

**Q.** What about the “Ke, Minimum” value [2] of the same compound?
**A.** Its value is 0.02 h⁻¹.

**Q.** And the “T1/2 beta, Mean Value” [2]?
**A.** The value was 55.46 h.

**Q.** And the “V1, Maximum” value [2]?
**A.** The value was 1025.35 L.

**Q.** And the “V1, Mean Value” [2]?
**A.** The value was 586.83 L.

**Q.** What about the “V1, Minimum” value [2] of the same compound?
**A.** The value was 341.94 L.

**Q.** And the “V2, Maximum” value [2]?
**A.** Its value is 3193.05 L.

**Q.** And the “V2, Mean Value” [2]?
**A.** Its value is 1779.12 L.

**Q.** And the “V2, Minimum” value [2]?
**A.** The value was 798.71 L.

**Q.** And the “Vd beta, Mean Value” [2]?
**A.** Its value is 3219.51 L.

**Q.** And the “Vss, Maximum” value [2]?
**A.** Its value is 4218.4 L.

**Q.** What about the “Vss, Mean Value” [2] of the same compound?
**A.** The value was 2347.95 L.

**Q.** And the “Vss, Minimum” value [2]?
**A.** Its value is 1018.78 L.
